With `CCCS(=O)(=O)Nc1ccc(-c2c(C#N)c3ccc(Oc4ncccc4C(F)(F)F)cc3n2C2CC2)cc1` [Compound 2935] the melting point was 216 to 217 °C.

Compound `CCCS(=O)(=O)Nc1ccc(-c2c(C#N)c3ccc(Oc4cccnc4Cl)cc3n2C2CC2)cc1` [Compound 2936] has a melting point of 209 to 210 °C.

`CCCS(=O)(=O)Nc1ccc(-c2c(C#N)c3ccc(Oc4nccnc4Cl)cc3n2C2CC2)cc1` [Compound 2937] showed a melting point of 183 to 184 °C.

Work on `CCCS(=O)(=O)Nc1ccc(-c2c(C#N)c3ccc(Oc4nccnc4C)cc3n2C2CC2)cc1` [Compound 2938] yielded a melting point of 191 to 193 °C.

`CCCS(=O)(=O)Nc1ccc(-c2c(C#N)c3ccc(Oc4nccc(C)n4)cc3n2C2CC2)cc1` [Compound 2939] gave a melting point of 239 to 241 °C.

Work on `CCn1c(-c2ccc(N3CCCS3(=O)=O)cc2)c(C#N)c2ccc(OC3CCOCC3)cc21` [Compound 2940] yielded a melting point of 222 to 227 °C.

With `N#Cc1c(-c2ccc(N3CCCS3(=O)=O)cc2)n(C2CC2)c2cc(OC3CCOCC3)ccc12` [Compound 2941] the melting point was 219 to 224 °C.

`CC(C)n1c(-c2ccc(NC(=O)O[C@H](C)C3CC3)cc2)c(C#N)c2ccc(N3CCOCC3)cc21` [Compound 2942] showed a melting point of 191 to 193 °C.

Work on `CCCS(=O)(=O)Nc1ccc(-c2c(C#N)c3ccc(Oc4ncccc4Cl)cc3n2C2CC2)cc1` [Compound 2943] yielded a melting point of 215 to 217 °C.

In the case of `CCCS(=O)(=O)Nc1ccc(-c2c(C#N)c3ccc(Oc4cccnc4Cl)cc3n2C2CCC2)cc1` [Compound 2945], the melting point is reported as 173 to 175 °C.

With `CC(C)NS(=O)(=O)Nc1ccc(-c2c(C#N)c3ccc(Oc4nccnc4Cl)cc3n2C2CCC2)cc1` [Compound 2946] the melting point was 144 to 146 °C.

For `CC(C)NS(=O)(=O)Nc1ccc(-c2c(C#N)c3ccc(Oc4nccnc4Cl)cc3n2C2CC2)cc1` [Compound 2947], the melting point was 130 °C (dec.).

In the case of `N#Cc1c(-c2ccc(NS(=O)(=O)NCC3CC3)cc2)n(C2CCC2)c2cc(Oc3nccnc3Cl)ccc12` [Compound 2948], the melting point is reported as 206 to 208 °C.

Compound `N#Cc1c(-c2ccc(NS(=O)(=O)NCC3CC3)cc2)n(C2CC2)c2cc(Oc3nccnc3Cl)ccc12` [Compound 2949] has a melting point of 181 to 183 °C.

For `CC(C)Nc1ccc(-c2c(C#N)c3ccc(Oc4ncccc4Cl)cc3n2C2CC2)cc1` [Compound 2951], the melting point was 196 to 197 °C.

For `CC(C)n1c(-c2ccc(NC(=O)O[C@H](C)C(F)(F)F)cc2)c(C#N)c2ccc(N3CCOCC3)cc21` [Compound 2952], the melting point was 148 to 150 °C.

Compound `CC(C)n1c(-c2ccc(NC(=O)O[C@H](C)c3ccc(F)cc3)cc2)c(C#N)c2ccc(N3CCOCC3)cc21` [Compound 2953] has a melting point of 231 to 234 °C.

`CC(C)OC(=O)Nc1ccc(-c2c(C#N)c3ccc(N4CCCC4)cc3n2C2CCC2)cc1` [Compound 2954] showed a melting point of 241 to 244 °C.

`CCCS(=O)(=O)Nc1ccc(-c2c(C#N)c3ccc(N4CCCC4)cc3n2C2CCC2)cc1` [Compound 2955] gave a melting point of 229 to 234 °C.

Work on `CCCS(=O)(=O)Nc1ccc(-c2c(C#N)c3ccc(Oc4ncccc4F)cc3n2C2CC2)cc1` [Compound 2956] yielded a melting point of 198 to 200 °C.

For `CS(=O)(=O)CCCOc1ccc2c(C#N)c(-c3ccc(NS(=O)(=O)C4CC4)cc3)n(C3CCC3)c2c1` [Compound 2957], the melting point was 203 to 204 °C.

`C[C@@H](OC(=O)Nc1ccc(-c2c(C#N)c3ccc(OCCCS(C)(=O)=O)cc3n2C2CCC2)cc1)C(F)(F)F` [Compound 2958] showed a melting point of 206 to 208 °C.

`C[C@@H](OC(=O)Nc1ccc(-c2c(C#N)c3ccc(-c4ccccn4)cc3n2C2CCC2)cc1)C(F)(F)F` [Compound 2959] showed a melting point of 220 to 222 °C.

With `N#Cc1c(-c2ccc(NS(=O)(=O)C3CC3)cc2)n(C2CCC2)c2cc(N3CCCC3)ccc12` [Compound 2960] the melting point was 258 to 260 °C.

With `C[C@@H](OC(=O)Nc1ccc(-c2c(C#N)c3ccc(N4CCCC4)cc3n2C2CCC2)cc1)C(F)(F)F` [Compound 2961] the melting point was 246 to 249 °C.

`CCS(=O)(=O)Nc1ccc(-c2c(C#N)c3ccc(N4CCCC4)cc3n2C2CCC2)cc1` [Compound 2962] showed a melting point of 244 to 250 °C.

In the case of `CCCS(=O)(=O)Nc1ccc(-c2c(C#N)c3ccc(N4CCCCC4)cc3n2CC2CC2)cc1` [Compound 2963], the melting point is reported as 189 to 194 °C.

With `CC1(S(=O)(=O)Nc2ccc(-c3c(C#N)c4ccc(C(=O)N5CCOCC5)cc4n3C3CCC3)cc2)CC1` [Compound 2964] the melting point was 248 to 250 °C.

`CCC1(S(=O)(=O)Nc2ccc(-c3c(C#N)c4ccc(C(=O)N5CCOCC5)cc4n3C3CCC3)cc2)CC1` [Compound 2965] gave a melting point of 212 to 214 °C.

With `CC(C)OC(=O)Nc1ccc(-c2c(C#N)c3ccc(N4CCCCC4)cc3n2C2CCC2)cc1` [Compound 2967] the melting point was 208 to 213 °C.

Work on `CC(C)S(=O)(=O)Nc1ccc(-c2c(C#N)c3ccc(N4CCCCC4)cc3n2C2CCC2)cc1` [Compound 2968] yielded a melting point of 233 to 235 °C.

`CCCS(=O)(=O)Nc1ccc(-c2c(C#N)c3ccc(Oc4nccc(C)n4)cc3n2CC2CC2)cc1` [Compound 2969] gave a melting point of 181 to 183 °C.

In the case of `N#Cc1c(-c2ccc(NCc3ccccc3C(F)(F)F)cc2)n(C2CCC2)c2cc(OCCF)ccc12` [Compound 2970], the melting point is reported as 183 to 185 °C.

`CCCS(=O)(=O)Nc1ccc(-c2c(C#N)c3ccc(-c4ncccc4Cl)cc3n2C2CCC2)cc1` [Compound 2972] showed a melting point of 235 to 237 °C.

For `CCS(=O)(=O)Nc1ccc(-c2c(C#N)c3ccc(N4CCCCC4)cc3n2C2CCC2)cc1` [Compound 2974], the melting point was 203 to 205 °C.

With `CC(C)S(=O)(=O)Nc1ccc(-c2c(C#N)c3ccc(N4CCCC4)cc3n2C2CCC2)cc1` [Compound 2975] the melting point was 256 to 261 °C.

Work on `Cc1cccc(-c2ccc3c(C#N)c(-c4ccc(NC(=O)O[C@H](C)C5CC5)cc4)n(C4CCC4)c3c2)c1` [Compound 2977] yielded a melting point of 112 to 117 °C.

With `CCCS(=O)(=O)Nc1ccc(-c2c(C#N)c3ccc(-c4cc(C)ccn4)cc3n2C2CCC2)cc1` [Compound 2978] the melting point was 210 to 212 °C.

Work on `CCCS(=O)(=O)Nc1ccc(-c2c(C#N)c3ccc(Oc4nccc(C)n4)cc3n2CC2CC2)c(C)c1` [Compound 2980] yielded a melting point of 167 to 170 °C.

With `CCCS(=O)(=O)Nc1ccc(-c2c(C#N)c3ccc(Oc4nccc(C(F)(F)F)n4)cc3n2CC2CC2)c(C)c1` [Compound 2981] the melting point was 174 to 177 °C.

Work on `CC(C)CS(=O)(=O)Nc1ccc(-c2c(C#N)c3ccc(N4CCCCC4)cc3n2C2CCC2)cc1` [Compound 2982] yielded a melting point of 198 to 202 °C.

`N#Cc1c(-c2ccc(NS(=O)(=O)C3CC3)cc2)n(C2CCC2)c2cc(N3CCCCC3)ccc12` [Compound 2983] showed a melting point of 232 to 238 °C.

Work on `CS(=O)(=O)Nc1ccc(-c2c(C#N)c3ccc(N4CCCCC4)cc3n2C2CCC2)cc1` [Compound 2984] yielded a melting point of 229 to 233 °C.

Work on `C[C@@H](OC(=O)Nc1ccc(-c2c(C#N)c3ccc(N4CCCC4)cc3n2C2CCC2)cc1)C1CC1` [Compound 2985] yielded a melting point of 205 to 210 °C.

In the case of `C[C@@H](OC(=O)Nc1ccc(-c2c(C#N)c3ccc(N4CCCC4)cc3n2C2CC2)cc1)C1CC1` [Compound 2986], the melting point is reported as 197 to 202 °C.

`CCCS(=O)(=O)Nc1ccc(-c2c(C#N)c3ccc(OCS(C)(=O)=O)cc3n2C2CCC2)cc1` [Compound 2987] showed a melting point of 266 to 273 °C.

`CC(C)CS(=O)(=O)Nc1ccc(-c2c(C#N)c3ccc(OCS(C)(=O)=O)cc3n2C2CCC2)cc1` [Compound 2991] gave a melting point of 221 to 225 °C.

`CS(=O)(=O)COc1ccc2c(C#N)c(-c3ccc(NS(=O)(=O)C4CCC4)cc3)n(C3CCC3)c2c1` [Compound 2993] showed a melting point of 231 to 237 °C.

`C[C@@H](OC(=O)Nc1ccc(-c2c(C#N)c3ccc(-c4ccccn4)cc3n2C2CCC2)cc1Cl)C(F)(F)F` [Compound 2994] gave a melting point of 84 to 94 °C.

`C[C@@H](OC(=O)Nc1ccc(-c2c(C#N)c3cc(Oc4cnccn4)ccc3n2C2CCC2)cc1)C1CC1` [Compound 2995] showed a melting point of 206 to 208 °C.

With `C[C@@H](OC(=O)Nc1ccc(-c2c(C#N)c3cc(Oc4ncccn4)ccc3n2C2CCC2)cc1)C1CC1` [Compound 2996] the melting point was 200 to 202 °C.

In the case of `C[C@@H](OC(=O)Nc1ccc(-c2c(C#N)c3ccc(-c4ncccc4C(F)(F)F)cc3n2C2CCC2)cc1)C1CC1` [Compound 2997], the melting point is reported as 90 to 98 °C.

`Cc1cccnc1-c1ccc2c(C#N)c(-c3ccc(NC(=O)O[C@H](C)C4CC4)cc3)n(C3CCC3)c2c1` [Compound 2999] gave a melting point of 226 to 228 °C.

Work on `C[C@@H](OC(=O)Nc1ccc(-c2c(C#N)c3ccc(-c4cccc(Cl)n4)cc3n2C2CCC2)cc1)C1CC1` [Compound 3000] yielded a melting point of 208 to 210 °C.

With `C[C@@H](OC(=O)Nc1ccc(-c2c(C#N)c3ccc(-c4ccc(Cl)cn4)cc3n2C2CCC2)cc1)C1CC1` [Compound 3001] the melting point was 111 to 122 °C.

Work on `Cc1ccc(-c2ccc3c(C#N)c(-c4ccc(NC(=O)O[C@H](C)C5CC5)cc4)n(C4CCC4)c3c2)nc1` [Compound 3002] yielded a melting point of 88 to 102 °C.

`CCCS(=O)(=O)Nc1ccc(-c2c(C#N)c3ccc(Oc4ncccc4Br)cc3n2C2CC2)cc1` [Compound 3003] gave a melting point of 223 to 225 °C.

Work on `CC(C)Nc1ccc(-c2c(C#N)c3ccc(Oc4ncccc4F)cc3n2C2CCC2)cc1` [Compound 3004] yielded a melting point of 188 to 190 °C.

Work on `Cc1ccnc(Oc2ccc3c(C#N)c(-c4ccc(NC(C)C)cc4)n(C4CCC4)c3c2)n1` [Compound 3006] yielded a melting point of 173 to 175 °C.

`C[C@@H](OC(=O)Nc1ccc(-c2c(C#N)c3ccc(Oc4ncccc4F)cc3n2C2CC2)cc1)C1CC1` [Compound 3007] showed a melting point of 154 to 156 °C.

For `CC(C)OC(=O)Nc1ccc(-c2c(C#N)c3ccc(N4CCOCC4)cc3n2C2CCC2)cc1Cl` [Compound 3011], the melting point was 196 to 199 °C.

In the case of `CCCS(=O)(=O)Nc1ccc(-c2c(C#N)c3ccc(N4CCOCC4)cc3n2C2CCC2)cc1` [Compound 3013], the melting point is reported as 176 to 179 °C.

With `CC(C)CS(=O)(=O)Nc1ccc(-c2c(C#N)c3ccc(-n4ccccc4=O)cc3n2C2CCC2)cc1` [Compound 3015] the melting point was 270 °C (dec.).

`C[C@H](NS(=O)(=O)Nc1ccc(-c2c(C#N)c3ccc(Oc4ncccc4Cl)cc3n2C2CCC2)cc1)C1CC1` [Compound 3017] showed a melting point of 120 to 125 °C.

With `C[C@H](NS(=O)(=O)Nc1ccc(-c2c(C#N)c3ccc(Oc4ncccc4F)cc3n2C2CCC2)cc1)C1CC1` [Compound 3018] the melting point was 155 to 157 °C.

From patent US7772271B2 (priority 2004, dated 2010)
